The assay has as its system Saprolegnia parasitica. Briefly: Antifungal effect at different concentrations by 24-well plate method (MIC). Type of assay: cell-based. The note with it: for Antifungal effect: water mould Saprolegnia parasitica on GY agar. The source says: Water moulds were taken from the body surface of rainbow trout. The water moulds were isolated and subcultured using GY medium (broth) containing 10 g/L of glucose and 2.5 g/L of yeast extract and GY medium (agar) containing 10 g/L of glucose, 2.5 g/L of yeast extract and 7.5 g/L of agar. The pathogenic water moulds were isolated and identified as Saprolegnia parasitica (Gene Bank Data homology search result: 99%) through ITS-5.8S rDNA sequencing at the Korean Culture Center of Microorganisms (KCCM) of the Korean Federation of Culture Collections (KFCC). The natural product sweet flag extract was compared with malachite green. Antifungal effect and minimal inhibitory concentration (MIC) were tested by the 24-well plate method and the diffusion method.
GY agar was placed on a sterilized 24-well plate. […] Hyphae of Saprolegnia parasitica, which had been cultured in GY agar plate, taken with a 50 mL syringe were added to each plate and antifungal activity test was carried out for 72 hours. Photographs were taken every 24 hours.
GY agar was placed on a sterilized 24-well plate. After waiting until the medium was dry, each 100 μL of 20 ppm, 2 ppm and 0.2 ppm malachite green (MG) was added to the GY medium (control), in the same manner as in FIG. 1. Hyphae of Saprolegnia parasitica, which had been cultured in GY agar plate, taken with a 50 mL syringe were added to each plate and antifungal activity test was carried out for 72 hours. Photographs were taken every 24 hours.

For the compound `CN(C)c1ccc(C(=C2C=CC(=[N+](C)C)C=C2)c2ccccc2)cc1` [MG, malachite green], the Antifungal effect result is, setting by setting: (0.2 ppm) “+”; (2 ppm) “++”; (20 ppm) “+++”. The MIC (Saprolegnia parasitica, read-out: MIC (minimal inhibitory concentration)) amounted to 2 µg/mL.
